The values that follow come from ChEMBL document CHEMBL4359843, “Linear and Rationally Designed Stapled Peptides Abrogate TLR4 Pathway and Relieve Inflammatory Symptoms in Rheumatoid Arthritis Rat Model” (J Med Chem, 2019).

Data set [1] deals with T1, Toll-like receptor 4 (Homo sapiens, UniProt O00206). The data set is described as follows: Binding affinity to recombinant human TLR4 using phage displayed compound by Phage-ELISA.
Data set [2] has as its target T1, Toll-like receptor 4. The data set is described as follows: Antagonist activity at TLR4 in human THP1 cells assessed as reduction in LPS-induced p38 phosphorylation at 50 uM after 15 to 30 mins by Western blot analysis. Type of data set: cell-based. In general terms: A western blot detects proteins with antibodies after separation by electrophoresis.
Data set [3] deals with T1, Toll-like receptor 4. As to the kind of experiment: Antagonist activity at TLR4 (unknown origin) assessed as inhibition of proinflammatory cytokines.
The subject of data set [4] is Rattus norvegicus. The data set is described as follows: Antiarthritic activity in Lewis rat model of complete Freund's adjuvant-induced arthritis assessed as reduction in mean articular index score at 1 nmol/g administered intra-articularly into knee joint for 6 weeks and measured every week during compound dosing. Type of data set: functional, organism-based.
The target in data set [5] is T1, Toll-like receptor 4. As to the kind of experiment: Binding affinity to recombinant human TLR4 assessed as dissociation rate constant up to 200 uM by surface plasmon resonance analysis. In general terms: In SPR one partner is held on a chip, and binding of the other changes the refractive index at the surface.
Data set [6] concerns the target T2, Toll-like receptor 4 (Mus musculus) (UniProt Q9QUK6).
T2 sequence (whole entry): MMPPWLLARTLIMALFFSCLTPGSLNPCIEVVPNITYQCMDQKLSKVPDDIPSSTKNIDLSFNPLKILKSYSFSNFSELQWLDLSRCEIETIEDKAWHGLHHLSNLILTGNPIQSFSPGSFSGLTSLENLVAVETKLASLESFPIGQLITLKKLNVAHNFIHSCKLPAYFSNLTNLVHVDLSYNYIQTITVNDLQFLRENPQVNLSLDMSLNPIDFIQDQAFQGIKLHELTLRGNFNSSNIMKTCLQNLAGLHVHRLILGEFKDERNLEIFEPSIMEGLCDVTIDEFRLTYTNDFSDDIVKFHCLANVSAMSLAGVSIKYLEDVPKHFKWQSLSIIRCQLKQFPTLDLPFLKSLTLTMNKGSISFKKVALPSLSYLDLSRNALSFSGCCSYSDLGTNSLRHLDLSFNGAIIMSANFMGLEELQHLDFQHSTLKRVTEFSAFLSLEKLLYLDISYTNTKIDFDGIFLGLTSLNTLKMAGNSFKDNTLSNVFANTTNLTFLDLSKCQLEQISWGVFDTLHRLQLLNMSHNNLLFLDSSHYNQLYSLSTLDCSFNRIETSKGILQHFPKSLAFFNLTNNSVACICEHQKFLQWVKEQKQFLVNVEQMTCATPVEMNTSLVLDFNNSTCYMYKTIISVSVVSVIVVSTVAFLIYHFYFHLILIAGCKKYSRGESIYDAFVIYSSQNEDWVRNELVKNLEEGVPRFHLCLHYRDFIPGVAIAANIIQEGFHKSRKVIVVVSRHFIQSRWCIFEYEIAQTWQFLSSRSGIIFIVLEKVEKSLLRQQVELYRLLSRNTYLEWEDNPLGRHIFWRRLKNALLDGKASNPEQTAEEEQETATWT
As to the kind of experiment: Antagonist activity at TLR4 in mouse RAW264.7 cells assessed as reduction in LPS-induced TNFalpha secretion after 24 hrs by ELISA. Type of data set: cell-based.

Data set [7] concerns RAW264.7. The data set is described as follows: Cytotoxicity against mouse RAW264.7 cells assessed as reduction in cell viability at 5 to 50 uM after 24 hrs by MTT assay. Type of data set: cell-based. The note with it: raw264.7, 24 h.
Data set [8] addresses T1, Toll-like receptor 4. The data set is described as follows: Antagonist activity at TLR4 in human THP1 cells assessed as reduction in LPS-induced IkappaBalpha degradation at 50 uM after 15 to 30 mins by Western blot analysis. Type of data set: cell-based.
Data set [9] has as its target T3, Toll-like receptor 9 (Homo sapiens) (UniProt Q9NR96).
T3 sequence (whole entry): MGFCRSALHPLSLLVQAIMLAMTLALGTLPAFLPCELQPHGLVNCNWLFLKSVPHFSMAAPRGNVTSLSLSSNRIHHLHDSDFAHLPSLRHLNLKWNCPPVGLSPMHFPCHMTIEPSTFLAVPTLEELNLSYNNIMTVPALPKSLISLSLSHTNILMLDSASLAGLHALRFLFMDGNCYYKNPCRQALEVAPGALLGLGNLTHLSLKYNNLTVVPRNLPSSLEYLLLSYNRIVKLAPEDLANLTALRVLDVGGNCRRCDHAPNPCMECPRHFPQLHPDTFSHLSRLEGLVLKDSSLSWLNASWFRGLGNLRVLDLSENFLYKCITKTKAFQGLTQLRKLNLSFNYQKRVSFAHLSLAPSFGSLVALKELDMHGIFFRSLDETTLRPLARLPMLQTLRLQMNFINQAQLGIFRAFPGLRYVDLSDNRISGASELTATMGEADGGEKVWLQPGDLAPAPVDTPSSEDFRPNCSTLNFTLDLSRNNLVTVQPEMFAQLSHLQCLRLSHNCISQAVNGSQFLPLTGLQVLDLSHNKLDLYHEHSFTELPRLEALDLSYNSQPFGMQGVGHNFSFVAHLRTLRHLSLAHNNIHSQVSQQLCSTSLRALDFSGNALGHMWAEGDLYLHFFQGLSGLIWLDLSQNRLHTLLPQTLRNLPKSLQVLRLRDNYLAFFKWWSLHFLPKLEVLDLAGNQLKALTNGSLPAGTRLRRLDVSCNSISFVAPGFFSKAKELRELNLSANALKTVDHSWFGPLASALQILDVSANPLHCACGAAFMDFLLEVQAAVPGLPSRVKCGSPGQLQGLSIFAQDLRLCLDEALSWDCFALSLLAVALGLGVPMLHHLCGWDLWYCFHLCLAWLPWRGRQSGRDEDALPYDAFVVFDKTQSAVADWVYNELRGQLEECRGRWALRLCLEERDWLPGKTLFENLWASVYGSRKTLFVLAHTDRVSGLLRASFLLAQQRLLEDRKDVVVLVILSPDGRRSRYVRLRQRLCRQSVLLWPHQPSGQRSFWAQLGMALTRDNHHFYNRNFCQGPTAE
The data set is described as follows: Antagonist activity at TLR9 in human THP1 cells assessed as reduction in CpG ODN-induced IL6 secretion at 50 uM after 24 hrs by ELISA. Type of data set: cell-based.

Data set [10] addresses T1, Toll-like receptor 4. As to the kind of experiment: Binding affinity to recombinant human TLR4 by surface plasmon resonance analysis.
Data set [11] deals with T2, Toll-like receptor 4 (Mus musculus). As to the kind of experiment: Antagonist activity at TLR4 in mouse RAW264.7 cells assessed as reduction in LPS-induced IL-6 secretion after 24 hrs by ELISA. Type of data set: cell-based. (In general: In an ELISA, binding on a coated surface is turned into a signal by an enzyme label.)
The target in data set [12] is T1, Toll-like receptor 4. As to the kind of experiment: Antagonist activity at TLR4 (unknown origin).
Data set [13] can be described thus: Effect on SEAP activity in HEK-Blue cells harboring human TLR4 at 20 to 80 uM after 1 hr by SEAP assay. Type of data set: ADME, cell-based.
For data set [14], the target named is T1, Toll-like receptor 4. As to the kind of experiment: Antagonist activity at TLR4 in human PBMC cells assessed as reduction in LPS-induced p38 phosphorylation at 80 uM after 15 to 30 mins by Western blot analysis. Type of data set: cell-based.
The target of data set [15] is T2, Toll-like receptor 4 (Mus musculus). As to the kind of experiment: Antagonist activity at TLR4 in mouse RAW264.7 cells assessed as reduction in LPS-induced IFNbeta secretion after 24 hrs by ELISA. Type of data set: cell-based.
Data set [16] relates to RAW264.7. The data set is described as follows: Cytotoxicity against mouse RAW264.7 cells assessed as reduction in cell viability at 100 uM after 24 hrs by MTT assay. Type of data set: cell-based. The note with it: raw264.7, 24 h.
Data set [17] deals with T2, Toll-like receptor 4 (Mus musculus). The data set is described as follows: Antagonist activity at TLR4 in mouse RAW264.7 cells assessed as reduction in LPS-induced IkappaBalpha cytosolic degradation at 80 uM after 15 to 30 mins by Western blot analysis. Type of data set: cell-based.

Active and inactive are the calls of the source. The rule behind the calls is not given here. Where a SMILES comes first, the peptide text is derived from it. Bridges are numbered along the chain shown (N, C = ends).

T1 sequence (O00206 whole entry): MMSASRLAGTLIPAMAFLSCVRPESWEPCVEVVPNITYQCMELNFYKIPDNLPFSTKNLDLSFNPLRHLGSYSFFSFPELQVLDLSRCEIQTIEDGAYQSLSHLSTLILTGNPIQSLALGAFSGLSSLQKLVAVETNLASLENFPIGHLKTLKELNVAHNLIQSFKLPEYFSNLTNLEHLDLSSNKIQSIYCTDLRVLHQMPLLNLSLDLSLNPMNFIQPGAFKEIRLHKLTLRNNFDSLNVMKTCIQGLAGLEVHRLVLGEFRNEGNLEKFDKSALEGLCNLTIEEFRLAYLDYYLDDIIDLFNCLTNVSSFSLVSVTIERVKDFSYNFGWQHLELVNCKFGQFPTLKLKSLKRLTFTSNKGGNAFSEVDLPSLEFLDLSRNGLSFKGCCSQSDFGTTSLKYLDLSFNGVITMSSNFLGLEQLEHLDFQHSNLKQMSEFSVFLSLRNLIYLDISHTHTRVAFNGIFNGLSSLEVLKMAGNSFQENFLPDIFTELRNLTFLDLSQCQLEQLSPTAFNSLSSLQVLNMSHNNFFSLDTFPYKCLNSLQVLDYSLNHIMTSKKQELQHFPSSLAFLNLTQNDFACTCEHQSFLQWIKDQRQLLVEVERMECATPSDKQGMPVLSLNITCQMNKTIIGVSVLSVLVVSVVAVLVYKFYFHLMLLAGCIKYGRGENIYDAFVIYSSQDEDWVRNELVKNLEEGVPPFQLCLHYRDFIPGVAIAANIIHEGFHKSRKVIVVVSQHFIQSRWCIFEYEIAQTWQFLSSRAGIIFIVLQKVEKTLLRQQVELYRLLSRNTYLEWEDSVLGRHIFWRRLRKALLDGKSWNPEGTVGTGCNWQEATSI

For orientation: IC50 means the concentration needed to halve the response being measured. Broadly, the koff is the first-order rate constant of dissociation. Regarding `CC[C@H](C)[C@@H]1NC(=O)[C@H](Cc2c[nH]c3ccccc23)NC(=O)[C@H](Cc2c[nH]c3ccccc23)NC(=O)[C@@H](NC(=O)[C@H](CO)NC(=O)[C@H](Cc2ccccc2)NC(=O)[C@@H](NC(=O)CNC(=O)[C@@H](N)CC(C)C)C(C)C)CC(=O)NCCCC[C@@H](C(=O)N[C@@H](CC(C)C)C(=O)N[C@H](C(=O)O)C(C)C)NC1=O` (H-LGVFSDWWIKLV-OH; lactam 6-10), the result in data set [1], in [2], in data set [4], in [8] and in data set [9] was Active. Besides, the IC50 in [3] is 5 µM; in data set [12], 25 µM. Further, the koff in [5] was found to be 0.0014 s⁻¹. Also, the Activity entry in [6] is “Dose-dependent effect”; in data set [7], “Non-Toxic”; in data set [10] it was “Dose-dependent effect”; in data set [11] it was “Dose-dependent effect”.

Turning to H-LGVFSSWWIKLV-OH, the result in data set [1], in data set [14] and in data set [17] was Active. The values for the IC50 in data set [3] and in [12] were 20 µM and 40 µM, respectively. The koff in data set [5] is 0.0113 s⁻¹. Besides, the Activity result in data set [6] was “Dose-dependent effect”; in data set [13], “Non-Toxic”; in data set [15], “Dose-dependent effect”; in data set [10], “Dose-dependent effect”; in data set [16], “Toxic”; in data set [11] it was “Dose-dependent effect”.
